Assay results: patent US20250345318A1, “COMPOUND AND USE THEREOF IN PREVENTING OR TREATING RADIATION DAMAGE” (SIMCERE PHARMACEUTICAL CO., LTD., priority 2022, published 2025)

How the values were obtained:
C57BL/6 male mice [1] = assay: Body weight, spleen and thymus indexes and HE staining after total body irradiation (Example 3); assay type: in vivo
Method: C57BL/6 male mice (24.8±1,6 g in body weight) aged 10 weeks were divided into 4 groups of 8 mice each. After acclimating to the environment, JAC4 (100 mg/kg) or an equal volume of vehicle (polyethylene glycol:ethanol:physiological saline=47.5:7.5:50, v/v/v) was orally administered to the mice once daily for 7 consecutive days. After that, the mice in one JAC4 treatment group and one vehicle group were subjected to total body X-ray irradiation (6 Gy) and JAC4 or vehicle treatment was continued. After 3 days, the administration of JAC4 or vehicle was discontinued, and blood samples, small intestine tissues, and thymus and spleen tissues were collected 4 days later.
HE staining was performed on spleen tissues and thymus tissues from mice in all groups, with procedures as follows:
(1) Section deparaffinization: 1) xylene I treatment for 5 min; 2) xylene II treatment for 5 min; 3) xylene III treatment for 5 min; 4) 100% ethanol treatment for 5 min; 5) 100% ethanol II treatment for 5 min; 6) 95% ethanol treatment for 5 min; 7) 90% ethanol treatment for 5 min; 8) 85% ethanol treatment for 5 min; 9) 70% ethanol treatment for 5 min; 10) 60% ethanol treatment for 5 min.
(2) HE staining: After being rinsed with double-distilled water, the sections were stained with hematoxylin solution for 6 min, differentiated with 0.5% hydrochloric acid in alcohol for a short period, and then placed in double-distilled water for bluing. When the chromatin within the cell nuclei was clearly visible under a microscope, the sections were stained with 0.5% eosin for 30 s.

C57BL/6 male mice [2] = assay: Small intestine epithelial injury after abdominal X-ray irradiation at 3 or 6 Gy (Example 8); assay type: in vivo; conditions: for small intestine villus length: 4 days after
Method: CS7BL/6 male mice (24.8±1.6 g in body weight) aged 10 weeks were divided into 5 groups of 6 mice each. JAC4 (100 mg/kg) or an equal volume of vehicle (polyethylene glycol:ethanol:physiological saline=47.5:7.5:50, v/v/v) was orally administered to the mice once daily for 7 consecutive days. After that, the mice were subjected to abdominal X-ray irradiation at different doses (3 or 6 Gy) and JAC4 or vehicle treatment was continued. After 4 days, the small intestine tissues were collected for HE staining and inspection, the small intestine villus length and the ileum crypt height in all groups were measured and statistically analyzed, and the small intestine was histopathologically scored. The specific procedures are as follows: 3 mice were randomly selected from each group for statistical analysis of their small intestine tissue HE staining images, and for each mouse, 6 fields of view were randomly selected for inspection (*** p<0.001).

IEC-6 cells = assay: γ-H2AX immunofluorescence in irradiated IEC-6 cells (Example 13); assay type: cell-based; conditions: JAC4 + radiation
Method: The cell immunofluorescent images of γ-H2AX in different treatment groups were recorded after the IEC-6 cells were irradiated, and the mean fluorescence intensity of individual cells (***p<0.001) was measured using Image J. The results are shown in FIG. 19.

SPCA-1 cells [3] = assay: CCK-8 cell viability, JAC4 with X-ray, SPCA-1 (Example 22); assay type: cell-based, human; conditions: 10 μM JAC4 24 h + 4 Gy X-ray 24 h
Method: SPCA-1 and BEAS-2B cells were cultured in a 90%/DMEM+10% FBS+100 μg/mL ciprofloxacin culture medium. The SPCA-1 and BEAS-2B cells were pretreated for 24 h with 10 μM JAC4 and subjected to 4 Gy X-ray treatment for 24 h and then CCK-8 detection, so as to explore the influence of JAC4 in combination with X-ray on the viability of SPCA-1 and BEAS-2B cells. The specific procedures are as follows:
1. SPCA-1 and BEAS-2B cells in the exponential growth phase were plated in a 96-well plate at 5,000 cells/well in triplicate for each group.
2. After 24 h of culture, when the cells fully adhered to the container wall and returned to normal morphology, the cells were treated with X-ray radiation of 0, 4, 8, 12, 16, or 20 Gy or JAC4 at 0, 1, 5, 10, 20, or 50 μM.
3. After 24 h of treatment, CCK-8 reagent was added at 10 μL/well, and the cells were incubated in a cell incubator for 1 h. The absorbance (OD) at 450 nm was measured.
4. Cell viability equation: cell viability (%)=[…]×100%/(ODcontrol−ODblank).

SPCA-1 cells [4] = assay: Plate colony formation, SPCA-1 (Example 22); assay type: cell-based, human
Method: The cell proliferation capacity was determined by a plate colony formation experiment, with the following specific procedures.
(§1) 1. SPCA-1 and BEAS-2B cells (or SPCA-1 and BEAS-2B cells transfected with JWA-knockdown plasmids) in the exponential growth phase were plated in 6-well plates at a specific amount. The number of plated cells is as follows
(§2) 2. After the cells adhered to the container wall, the cells were treated (or not treated) with […] JAC4 and treated with X-ray of 0, 2, 4, or 6 Gy. The medium was replaced with a fresh medium containing JAC4 at the corresponding concentration once every 2 days (or the cells were treated with X-ray of 0, 2, 4, or 6 Gy after adhesion, and the medium was replaced with a fresh medium once every 2 days).
(§3) 3. After the cells were cultured for 10-14 days, colonies were visually observed. The culture medium was discarded, and the cells were fixed with methanol for 10-20 min, stained with crystal violet for 10 min, slowly washed with flowing clear water thrice, photographed, and counted for colonies containing>50 cells.
4. The colony forming efficiency (CFE)=(number of colonies formed/number of seeded cells) 100% was calculated, and the cell survival fraction (SF)=(colony forming efficiency of treatment group/colony forming efficiency of 0 Gy group)×100% was calculated from the colony forming efficiency.

SPCA-1 cells [5] = assay: Intracellular ROS (DCFH-DA), SPCA-1 (Example 22); assay type: cell-based, human
Excerpt: The large amount of reactive oxygen species (ROS) induced by X-ray and the sustained oxidative stress reaction may cause DNA damage. Superoxide dismutase (SOD) and catalase (CAT) exert antioxidant effects, and the lipid oxidation product malondialdehyde (MDA) and ROS can reflect the oxidative stress level in vivo. The intracellular ROS level was detected using the fluorescent probe DCFH-DA. […] The supernatant of BEAS-2B cells was extracted and subjected to an MDA assay and an activity assay for CAT and SOD.

[6] = system: BEAS-2B cells transfected with JWA-knockdown plasmids; assay: Colony formation of BEAS-2B cells transfected with JWA-knockdown plasmids (Example 22); assay type: cell-based, human; conditions: JAC4-treated JWA-knockdown BEAS-2B vs JAC4-treated si-Control
Method: as §1, §2, §3
4. The colony forming efficiency (CFE)=(number of colonies formed/number of seeded cells) 100% was calculated, and the cell survival fraction (SF)=(colony forming efficiency of treatment group/colony forming efficiency of 0 Gy group)×100% was calculated from the colony forming efficiency. […]

[7] = JAC4 100 mg/kg oral + TBI 6 Gy vs vehicle + radiation
[8] = non-radiation, JAC4 100 mg/kg oral
[9] = JAC4 100 mg/kg oral + abdominal X-ray 3 Gy
[10] = JAC4 100 mg/kg oral + abdominal X-ray 6 Gy

SMILES: c1ccc(CSc2nnc(C3COc4ccccc4O3)o2)nc1 (stereo not shown) [JAC4]
- spleen index (C57BL/6 male mice [1]; JAC4 100 mg/kg oral + TBI 6 Gy): 1.31 ± 0.18 mg/g
- thymus index (C57BL/6 male mice [1]; JAC4 100 mg/kg oral + TBI 6 Gy): 1.63 ± 0.24 mg/g
- HE staining of spleen tissue after X-ray radiation (C57BL/6 male mice [1]; [7]): no significant difference between the vehicle control group and the JAC4 group
- HE staining of thymus tissue after X-ray radiation (C57BL/6 male mice [1]; [7]): no significant difference between the vehicle control group and the JAC4 group
- degree of body weight loss (C57BL/6 male mice [1]; JAC4 100 mg/kg oral, TBI 6 Gy): significantly less than that in the control group
- spleen index (C57BL/6 male mice [1]; [8]): 3.22 ± 0.26 mg/g
- thymus index (C57BL/6 male mice [1]; [8]): 2.51 ± 0.43 mg/g
- ileum crypt height (C57BL/6 male mice [2]; [9]): 62.06±3.26 μm
- small intestine histopathological score (C57BL/6 male mice [2]; [9]): 1.50±0.55
- small intestine villus length (C57BL/6 male mice [2]; [9]): 278.19±25.21 μm
- ileum crypt height (C57BL/6 male mice [2]; [10]): 57.32±4.43 μm
- small intestine histopathological score (C57BL/6 male mice [2]; [10]): 4.17±0.98
- small intestine villus length (C57BL/6 male mice [2]; [10]): 278.25±23.79 μm
- mean fluorescence intensity of γ-H2AX (IEC-6 cells): 26.00±1.79
- viability of SPCA-1 cells (CCK-8) (SPCA-1 cells [3]): significantly inhibited
- cell survival (radiosensitization curve) (SPCA-1 cells [4]; SPCA-1, 10 μM JAC4 + X-ray vs X-ray monotherapy): significantly reduced
- number of colonies formed (SPCA-1 cells [4]; SPCA-1, JAC4 in combination with X-ray): decreased
- ROS level (SPCA-1 cells [5]): no significant effect
- cell survival rate (radiosensitization curve) [6]: significantly decreased
